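Cells were grown in 96-well plates and exposed to each compound for 48 hours at five concentrations; endpoints were interpolated linearly between bracketing concentrations, or set to the highest concentration if not reached. Definition used: TGI = concentration required for complete inhibition of growth.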
Experiments:
Assay in all cases: NCI-60 cell line screen, 48 h
[1] = tested on: SK-MEL-5 melanoma
[2] = tested on: NCI-H460 lung
[3] = tested on: NCI-H23 lung
[4] = tested on: COLO 205 colon
[5] = tested on: MDA-N
[6] = tested on: HOP-62 NSCLC
[7] = tested on: SF-268 CNS
[8] = tested on: SK-MEL-2 melanoma
[9] = tested on: RXF 393 renal
[10] = tested on: OVCAR-4 ovarian
[11] = tested on: HT29 colon
[12] = tested on: OVCAR-8 ovarian

Compound	TGI [1] [µM]	TGI [2] [µM]	TGI [3] [µM]	TGI [4] [µM]	TGI [5] [µM]	TGI [6] [µM]	TGI [7] [µM]	TGI [8] [µM]	TGI [9] [µM]	TGI [10] [µM]	TGI [11] [µM]	TGI [12] [µM]
O=C1c2cc3c(cc2CC12Cc1ccccc1C2)CCC3	32.2	> 100	> 100	48.5	86.8	92	93.7	51.8	67.2	> 100	50.5	76.7
O=C1c2ccccc2CC12Cc1cc3c(cc1C2)CCC3	35.8	> 100	> 100	> 100	> 100	> 100	> 100	> 100	> 100	> 100	62.1	> 100
CCCC(=O)OCC1OC(n2cc(F)c(=O)[nH]c2=O)C(F)C1O (stereo not given)	> 100	> 100	> 100	> 100	> 100	> 100	> 100	> 100	> 100	> 100	> 100	> 100
NC(=O)c1ncn(C2C=CC(CP(=O)(O)O)C2)c1N (stereo not given)	> 100	> 100	> 100	> 100	> 100	> 100	> 100	> 100	> 100	> 100	> 100	> 100
Cc1c(-c2ccccc2)c(C#N)c2nnn(-c3ccc(Cl)cc3)c(=O)n12	16	> 100	> 100	42.3	> 100	> 100	> 100	> 100	> 100	> 100	> 100	> 100
Cn1c(-c2ccccc2)cc(-c2ccc3c(c2)OCO3)c1-c1ccsc1	> 100	> 100	> 100	> 100	> 100	> 100	> 100	> 100	> 100	> 100	> 100	> 100
Cc1cc(C)c(/C=C2\C(=O)Nc3ccccc32)[nH]1	> 100	> 100	> 100	> 100	> 100	> 100	> 100	> 100	> 100	> 100	> 100	> 100
Cc1cccc(N=Nc2c(C)nn(C(=O)CC(=O)Nc3ccc(Cl)cc3)c2C)c1	> 100	> 100	> 100	> 100	> 100	> 100	> 100	> 100	> 100	> 100	> 100	> 100
Cc1nc2ccc(Cl)cc2c2c1CCN2c1ccc(F)cc1	21.6	> 100	> 100	56.5	> 100	> 100	> 100	> 100	93.3	> 100	> 100	> 100
CC(=O)Nc1ccc(S(=O)(=O)c2nnc(NC(C)=O)s2)cc1	> 100	> 100	> 100	0.537	> 100	> 100	> 100	> 100	> 100	> 100	> 100	> 100
O=c1c2ccccc2n2c(-c3ccccc3O)nnc2n1-c1ccccc1	> 100	> 100	> 100	> 100	> 100	> 100	> 100	> 100	> 100	> 100	> 100	> 100
Cc1cc(C)c2c(=O)n(CC(O)CN(Cc3ccccc3)CC(O)Cn3sc4nc(C)cc(C)c4c3=O)sc2n1 (stereo not given)	30.1	39.3	33.4	21.3	32.8	30.1	30.9	33.1	33.6	32.4	37.4	34.5
Cc1cccc2c(N)c3cccc(C(=O)NCC[N+](C)(C)Cc4ccccc4[N+](=O)[O-])c3nc12	> 41.1	16	14.1	> 39.7	> 41.4	> 41.4	> 35.2	> 54.6	> 37.7	> 34.5	19.8	> 30.7
NC1CCN(c2nc3ccccc3c3c2CCCC3)CC1	7.01	13.5	28.2	3.22	9.6	35.1	33	10.5	11.2	4.63	5.27	32.8
Nc1nc(Cl)c(N)c(NCC2(CO)CCC(OCc3ccccc3)C2)n1 (stereo not given)	> 100	> 100	> 100	> 100	> 100	> 100	> 100	> 100	> 100	> 100	> 100	> 100
